Where two headings read alike, the source gives them in different places. Numbered stars: 1 amine (or outer) side, 2 acyl side, 3 side chain; on linkers, the order of the positions; unused ones are H or OH. Bridge positions count the residues as written; N and C are the ends. Square brackets hold non-standard residues; d marks the D form. Ends that are not written are not given here. Peptide text beside a SMILES is read from it. PEG2K = polydispersed PEG of number-average molecular weight 2 kDa; X1 = O=C(C(CN[*:1])c1ccccc1)[*:2]
How the values were obtained:
[1] = molecular target: Recombinant human NEP (Homo sapiens, UniProt P08473); test: in vitro
How it was run: (§1)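 Recombinant human NEP (1 ug/mL final) incubated with 100 uM CNP variant in 0.1 M Tris, pH 7, at 37° C for various times, then quenched with EDTA (10 mM final) and heat. Samples reduced and analysed by HPLC and mass spectrometry. Half-life derived from loss of intact variant over time.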

[2] = molecular target: T1, NPR-B (Mus musculus, UniProt Q6VVW5); test: Stimulation of cGMP production in NIH3T3 cells; type: cell-based, Murine; conditions: for cGMP response relative to 1 uM CNP22 (%) at 0.01 µM: read-out: cGMP Response rel. to 1 uM CNP22, 10 nM; for cGMP response relative to 1 uM CNP22 (%) at 1 µM: read-out: cGMP Response rel. to 1 uM CNP22, 1 uM
T1 construct: Murine NIH3T3 cells express endogenously the CNP signaling receptor, NPR-B; endogenous in cells; host or cells: NIH3T3 (murine fibroblasts)
T1 sequence (Q6VVW5 17-1047): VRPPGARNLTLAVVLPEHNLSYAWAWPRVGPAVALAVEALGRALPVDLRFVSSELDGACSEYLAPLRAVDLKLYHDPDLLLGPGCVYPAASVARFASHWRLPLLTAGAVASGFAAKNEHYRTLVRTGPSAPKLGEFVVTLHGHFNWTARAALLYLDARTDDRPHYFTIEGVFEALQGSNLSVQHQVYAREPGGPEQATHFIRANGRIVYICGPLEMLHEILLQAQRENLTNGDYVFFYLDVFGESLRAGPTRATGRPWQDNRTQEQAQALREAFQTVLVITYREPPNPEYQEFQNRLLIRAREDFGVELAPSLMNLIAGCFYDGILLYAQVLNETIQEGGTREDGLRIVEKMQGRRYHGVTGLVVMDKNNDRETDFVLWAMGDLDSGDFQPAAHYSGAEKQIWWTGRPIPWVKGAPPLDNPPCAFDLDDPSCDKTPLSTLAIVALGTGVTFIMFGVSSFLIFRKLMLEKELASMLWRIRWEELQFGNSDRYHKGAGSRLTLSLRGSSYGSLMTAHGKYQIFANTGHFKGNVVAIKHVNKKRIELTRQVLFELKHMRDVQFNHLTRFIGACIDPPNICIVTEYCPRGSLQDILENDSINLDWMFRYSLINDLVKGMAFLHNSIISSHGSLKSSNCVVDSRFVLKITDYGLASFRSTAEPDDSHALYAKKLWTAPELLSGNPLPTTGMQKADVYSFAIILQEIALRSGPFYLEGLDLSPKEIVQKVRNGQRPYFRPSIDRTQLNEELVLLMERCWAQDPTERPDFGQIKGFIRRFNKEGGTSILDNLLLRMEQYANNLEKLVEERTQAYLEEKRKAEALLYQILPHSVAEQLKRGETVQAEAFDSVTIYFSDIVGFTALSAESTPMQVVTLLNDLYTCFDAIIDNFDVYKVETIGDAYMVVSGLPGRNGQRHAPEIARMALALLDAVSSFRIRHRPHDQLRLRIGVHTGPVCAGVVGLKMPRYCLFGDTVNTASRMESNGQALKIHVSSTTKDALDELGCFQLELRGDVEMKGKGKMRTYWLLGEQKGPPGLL

[3] = molecular target: neutral endopeptidase (NEP) (Homo sapiens, UniProt P08473); test: In vitro neutral endopeptidase (NEP) cleavage assay; conditions: human, pH 7
How it was run: as §1

[4] = NIH3T3 cells, 10 nM natriuretic peptide, normalized to cell number and cGMP production with 1 uM wtCNP22
[5] = NIH3T3 cells, 1 uM natriuretic peptide, normalized to cell number and cGMP production with 1 uM wtCNP22

Sequence of neutral endopeptidase (NEP) (P08473 whole entry): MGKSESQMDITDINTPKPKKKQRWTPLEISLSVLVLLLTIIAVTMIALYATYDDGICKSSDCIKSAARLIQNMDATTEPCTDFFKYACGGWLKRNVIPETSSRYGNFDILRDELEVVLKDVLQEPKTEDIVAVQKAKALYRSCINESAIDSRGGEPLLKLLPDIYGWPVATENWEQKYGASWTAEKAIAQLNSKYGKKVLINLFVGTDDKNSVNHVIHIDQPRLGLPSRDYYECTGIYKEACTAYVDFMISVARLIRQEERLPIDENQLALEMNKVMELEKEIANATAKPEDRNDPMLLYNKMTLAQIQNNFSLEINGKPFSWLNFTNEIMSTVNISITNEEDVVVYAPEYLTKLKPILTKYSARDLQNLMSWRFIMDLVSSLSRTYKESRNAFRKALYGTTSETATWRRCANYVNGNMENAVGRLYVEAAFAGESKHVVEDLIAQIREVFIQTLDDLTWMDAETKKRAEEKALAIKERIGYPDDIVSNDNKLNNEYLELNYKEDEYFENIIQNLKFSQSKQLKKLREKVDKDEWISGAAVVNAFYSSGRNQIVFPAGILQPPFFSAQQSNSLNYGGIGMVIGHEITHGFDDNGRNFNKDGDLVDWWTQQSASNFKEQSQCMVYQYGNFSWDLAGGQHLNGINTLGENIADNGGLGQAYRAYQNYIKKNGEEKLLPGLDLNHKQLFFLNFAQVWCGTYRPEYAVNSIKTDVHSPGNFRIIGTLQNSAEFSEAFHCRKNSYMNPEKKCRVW
Sequence of Recombinant human NEP (P08473 whole entry): as above

Compound	resistance to NEP cleavage/degradation (in words) [1]	cGMP response relative to 1 uM CNP22 (%) at 0.01 µM [2, 4] [%]	cGMP response relative to 1 uM CNP22 (%) at 1 µM [2, 5] [%]	half-life at 100 uM [3] [h]	also measured
DLRVDTKSRAAWARLLQEHPNARKYKGANKKGLSKGCFGLKLDRIGSMSGLGC (disulfide 37-53 (inferred)) [Analog BM]	resistant to NEP degradation	–	–	–	–
CC[C@H](C)[C@@H]1NC(=O)[C@H](CCCNC(=N)N)NC(=O)[C@H](CC(=O)O)NC(=O)[C@H](CC(C)C)NC(=O)[C@H](CCCCN)NC(=O)[C@H](CC(C)C)NC(=O)CNC(=O)[C@H](Cc2ccccc2)NC(=O)[C@@H](NC(=O)CNC(=O)[C@H](CCCCN)NC(=O)[C@H](CO)NC(=O)[C@H](CC(C)C)NC(=O)CNC(=O)[C@H](CCCNC(=N)N)NC(=O)[C@H](C)NC(=O)[C@H](CC(N)=O)NC(=O)[C@@H]2CCCN2C(=O)[C@H](Cc2c[nH]cn2)NC(=O)[C@H](CCC(=O)O)NC(=O)[C@H](CCC(N)=O)NC(=O)[C@H](CC(C)C)NC(=O)[C@H](CC(C)C)NC(=O)[C@H](CCCNC(=N)N)NC(=O)[C@H](C)NC(=O)[C@H](Cc2c[nH]c3ccccc23)NC(=O)[C@H](C)NC(=O)[C@H](C)N)CSSC[C@@H](C(=O)O)NC(=O)CNC(=O)[C@H](CC(C)C)NC(=O)CNC(=O)[C@H](CO)NC(=O)[C@H](CCSC)NC(=O)[C@H](CO)NC(=O)CNC1=O [CB] (H-AAWARLLQEHPNARGLSKGCFGLKLDRIGSMSGLGC-OH; disulfide 20-36 (inferred); N-terminus and C-terminus assumed)	much more resistant to NEP cleavage than CNP22	36	84	–	–
CC[C@H](C)[C@@H]1NC(=O)[C@H](CCCNC(=N)N)NC(=O)[C@H](CC(=O)O)NC(=O)[C@H](CC(C)C)NC(=O)[C@H](CCCCN)NC(=O)[C@H](CC(C)C)NC(=O)CNC(=O)C(c2ccccc2)CNC(=O)[C@@H](NC(=O)CNC(=O)[C@H](CCCCN)NC(=O)[C@H](CO)NC(=O)[C@H](CC(C)C)NC(=O)CN)CSSC[C@@H](C(=O)O)NC(=O)CNC(=O)[C@H](CC(C)C)NC(=O)CNC(=O)[C@H](CO)NC(=O)[C@H](CCSC)NC(=O)[C@H](CO)NC(=O)CNC1=O (stereo partly drawn) [H] (H-GLSKGC[X1]GLKLDRIGSMSGLGC-OH; disulfide 6-22; N-terminus and C-terminus assumed)	–	–	–	–	resistance to cleavage at the Cys6-Phe7 bond relative to wtCNP22 [1]: resistance or improved resistance
PEG2K-CNP22(K4G): CNP22 having a K4G substitution, N-terminal PEGylated with PEG2K (PEG2K-GLSGGCFGLKLDRIGSMSGLGC; disulfide 6-22 (inferred); UniProt P23582 105-126, looked up, variant K4G)	only slightly more resistant to NEP cleavage than CNP22	–	–	–	–
CC[C@H](C)[C@@H]1NC(=O)[C@H](CCCNC(=N)N)NC(=O)[C@H](CC(=O)O)NC(=O)[C@H](CC(C)C)NC(=O)[C@H](CCCCN)NC(=O)[C@H](CC(C)C)NC(=O)CNC(=O)[C@H](Cc2ccccc2)NC[C@@H](NC(=O)CNC(=O)[C@H](CCCCN)NC(=O)[C@H](CO)NC(=O)[C@H](CC(C)C)NC(=O)CN)CSSC[C@@H](C(=O)O)NC(=O)CNC(=O)[C@H](CC(C)C)NC(=O)CNC(=O)[C@H](CO)NC(=O)[C@H](CCSC)NC(=O)[C@H](CO)NC(=O)CNC1=O [A]	–	–	–	–	resistance to cleavage at the Cys6-Phe7 bond relative to wtCNP22 ([1]; data not shown): resistance or improved resistance
CC[C@H](C)[C@@H]1NC(=O)[C@H](CCCNC(=N)N)NC(=O)[C@H](CC(=O)O)NC(=O)[C@H](CC(C)C)NC(=O)[C@H](CCCCN)NC(=O)[C@H](CC(C)C)NC(=O)CNC(=O)[C@H](Cc2ccccc2)NC(=O)[C@@H](NC(=O)CNC(=O)[C@H](CCCCN)NC(=O)[C@H](CO)NC(=O)[C@H](CC(C)C)NC(=O)CNC(=O)CCOCCOCCOCCOCCOCCOCCOCCOCCOCCOCCOCCOCCNC(=O)CCCC[C@@H]2SC[C@@H]3NC(=O)N[C@@H]32)CSSC[C@@H](C(=O)O)NC(=O)CNC(=O)[C@H](CC(C)C)NC(=O)CNC(=O)[C@H](CO)NC(=O)[C@H](CCSC)NC(=O)[C@H](CO)NC(=O)CNC1=O [(PEO12)-Biotin-CNP22]	–	–	–	2.33	cGMP response relative to 1 uM CNP22 (%) at 0.01 µM ([2]; NIH3T3, […]): 19%; cGMP response relative to 1 uM CNP22 (%) at 1 µM ([2]; NIH3T3, […]): 81%
CC[C@H](C)[C@@H]1NC(=O)[C@H](CCCNC(=N)N)NC(=O)[C@H](CC(=O)O)NC(=O)[C@H](CC(C)C)NC(=O)[C@H](CCCCN)NC(=O)[C@H](CC(C)C)NC(=O)CNC(=O)[C@H](Cc2ccccc2)NC(=O)[C@@H](NC(=O)CNC(=O)[C@H](CCCNC(=N)N)NC(=O)[C@H](CO)NC(=O)[C@H](CC(C)C)NC(=O)CNC(=O)[C@@H](N)CCCNC(=N)N)CSSC[C@@H](C(=O)O)NC(=O)CNC(=O)[C@H](CC(C)C)NC(=O)CNC(=O)[C@H](CO)NC(=O)[C@H](CCSC)NC(=O)[C@H](CO)NC(=O)CNC1=O [AZ] (H-RGLSRGCFGLKLDRIGSMSGLGC-OH; disulfide 7-23 (inferred); N-terminus and C-terminus assumed)	–	54 ± 11	106 ± 15	≥ 2.67	–
CC[C@H](C)[C@@H]1NC(=O)[C@H](CCCNC(=N)N)NC(=O)[C@H](CC(=O)O)NC(=O)[C@H](CC(C)C)NC(=O)[C@H](CCCCN)NC(=O)[C@H](CC(C)C)NC(=O)CNC(=O)[C@H](Cc2ccccc2)NC(=O)[C@@H](NC(=O)CNC(=O)[C@H](CCCCN)NC(=O)[C@H](CO)NC(=O)[C@H](CC(C)C)NC(=O)CNC(=O)[C@H](CCCCN)NC(=O)[C@H](CCCCN)NC(=O)[C@H](CC(N)=O)NC(=O)[C@H](C)NC(=O)CNC(=O)[C@H](CCCCN)NC(=O)[C@H](Cc2ccc(O)cc2)NC(=O)[C@H](CCCCN)NC(=O)[C@H](CCCNC(=N)N)NC(=O)[C@H](C)NC(=O)[C@H](CC(N)=O)NC(=O)[C@@H]2CCCN2C(=O)[C@H](Cc2c[nH]cn2)NC(=O)[C@H](CCC(=O)O)NC(=O)[C@@H](N)CCC(N)=O)CSSC[C@@H](C(=O)O)NC(=O)CNC(=O)[C@H](CC(C)C)NC(=O)CNC(=O)[C@H](CO)NC(=O)[C@H](CCSC)NC(=O)[C@H](CO)NC(=O)CNC1=O [Analog BL]	resistant to NEP degradation	–	–	–	–
CC[C@H](C)[C@@H]1NC(=O)[C@H](CCCNC(=N)N)NC(=O)[C@H](CC(=O)O)NC(=O)[C@H](CC(C)C)NC(=O)[C@H](CCCCN)NC(=O)[C@H](CC(C)C)NC(=O)CNC(=O)[C@H](Cc2ccccc2)NC(=O)[C@@H](NC(=O)CNC(=O)[C@H](CCCNC(=N)N)NC(=O)[C@H](CO)NC(=O)[C@H](CC(C)C)NC(=O)CNC(=O)[C@H](CCCNC(=N)N)NC(=O)[C@H](CCCNC(=N)N)NC(=O)[C@H](CC(N)=O)NC(=O)[C@H](C)NC(=O)CN)CSSC[C@@H](C(=O)O)NC(=O)CNC(=O)[C@H](CC(C)C)NC(=O)CNC(=O)[C@H](CO)NC(=O)[C@H](CCSC)NC(=O)[C@H](CO)NC(=O)CNC1=O [Analog AY] (H-GANRRGLSRGCFGLKLDRIGSMSGLGC-OH; disulfide 11-27 (inferred); N-terminus and C-terminus assumed)	same lability to NEP hydrolysis as CNP22	–	–	–	–
CC[C@H](C)[C@@H]1NC(=O)[C@H](CCCNC(=N)N)NC(=O)[C@H](CC(=O)O)NC(=O)[C@H](CC(C)C)NC(=O)[C@H](CCCCN)NC(=O)[C@H](CC(C)C)NC(=O)CNC(=O)[C@H](Cc2ccccc2)NC(=O)[C@@H](NC(=O)CNC(=O)[C@H](CCCCN)NC(=O)[C@H](CO)NC(=O)[C@H](CC(C)C)NC(=O)CNC(=O)CCCC(=O)NCCOCCOCCOCCOCCC(=O)NC(COCCC(=O)NCCOCCOCCOCCOCCOCCOCCOCCOCCOCCOCCOCCOC)(COCCC(=O)NCCOCCOCCOCCOCCOCCOCCOCCOCCOCCOCCOCCOC)COCCC(=O)NCCOCCOCCOCCOCCOCCOCCOCCOCCOCCOCCOCCOC)CSSC[C@@H](C(=O)O)NC(=O)CNC(=O)[C@H](CC(C)C)NC(=O)CNC(=O)[C@H](CO)NC(=O)[C@H](CCSC)NC(=O)[C@H](CO)NC(=O)CNC1=O [PEO4-(PEO12)3 (branched)-CNP22]	–	17 ± 1	52 ± 6	> 2.67	–

From patent US8377884B2, “Variants of C-type natriuretic peptides” (Biomarin Pharmaceutical Inc., priority 2007, dated 2013)
